# According to patent publication US20010053781A1, “Pharmaceutical composition for enhancing cognition” (National Science Council, priority 2000, published 2001):
# Experiments:
# [1] = test system: mecamylamine-induced acquisition impairment of passive avoidance response in rats; experiment: Passive avoidance task, mecamylamine-induced acquisition impairment; format: in vivo, rat; conditions: ferulic acid at 50-100 mg/ml (printed), i.p. 1 hour before training trial, mecamylamine 10 mg/kg i.p., FIG. 2
# Method: (§1) Male Sprague-Dawley rats, weighing 200-250 grams, were housed in groups of six with free access to food and water and kept in a regulated environment (23±1° C.), wherein a 12-hour light-dark cycle (08:00-20:00 hours light) was maintained. Each experimental group included 12-18 rats. Rats were trained in a step-through passive avoidance task (Muromachi Kikai Co. Ltd. Japan). The apparatus consisted of two compartments having a steel-rod grid floor (36 parallel steel rods, 0.3 cm in diameter set 1.5 cm apart). One of the compartments (48×20×30 cm) was equipped with a 20 Watt lamp located centrally at a height of 30 cm, and the other was a dark compartment of the same size connected through a guillotine door (5×5 cm). The dark room was used during the experimental sessions that were conducted between 09:00 and 17:00. During the trial training, the guillotine door connecting the light and dark compartment was kept closed. After each rat was placed in the light compartment with its back to the guillotine door, the door was opened and simultaneously the time (step-through latency; STL) taken by the rat to enter the dark compartment was measured with a stopwatch^(14). Once the rat entered the dark compartment, the door was closed. An inescapable scrambled footshock (1.0 mA for 2 sec) was then delivered through the grid floor. […]
# [2] = test system: cerebral blood flow rate in rats; experiment: Cerebral blood flow rate by laser Doppler flowmetry; format: in vivo, rat; conditions: 50-100 mg/kg ferulic acid, from 10 to 40 minutes after administration, FIG. 10
# Method: The cerebral blood flow rate was measured by laser Doppler flowmetry in rats according to the procedure described in Morikawa, E. et al.^(19).
# [3] = test system: cycloheximide (CXM)-induced memory storage impairment of passive avoidance response in rats; experiment: Passive avoidance task, cycloheximide-induced memory consolidation impairment; format: in vivo, rat; conditions: ferulic acid at 50-100 mg/ml (printed), administered 60 minutes before the training trial, cycloheximide 1.5 mg/kg s.c., FIGS. 4-5
# Method: as §1
# [4] = test system: AF64A-induced impairment of passive avoidance response in rats; experiment: Passive avoidance task, AF64A-induced impairment; format: in vivo, rat; conditions: ferulic acid at 50-100 mg/kg, AF64-A 3 nmol/μl/brain into lateral ventricle 10 days before training, FIG. 8
# Method: Male Sprague-Dawley rats, weighing 200-250 grams, were housed in groups of six with free access to food and water and kept in a regulated environment (23±1° C.), wherein a 12-hour light-dark cycle (08:00-20:00 hours light) was maintained. Each experimental group included 12-18 rats.
# Rats were trained in a step-through passive avoidance task (Muromachi Kikai Co. Ltd. Japan). The apparatus consisted of two compartments having a steel-rod grid floor (36 parallel steel rods, 0.3 cm in diameter set 1.5 cm apart). One of the compartments (48×20×30 cm) was equipped with a 20 Watt lamp located centrally at a height of 30 cm, and the other was a dark compartment of the same size connected through a guillotine door (5×5 cm). […]
# During the trial training, the guillotine door connecting the light and dark compartment was kept closed. After each rat was placed in the light compartment with its back to the guillotine door, the door was opened and simultaneously the time (step-through latency; STL) taken by the rat to enter the dark compartment was measured with a stopwatch^(14). […] The rat was once again placed in the light compartment and as in the case of the training trial, the guillotine door was opened and the step-through latency was recorded and used as a measure of retention. […]
# The step-through latency of rats in light compartment was recorded according to the method described in Example 1. […]
# [5] = test system: scopolamine (SCOP)-induced acquisition impairment of passive avoidance response in rats; experiment: Passive avoidance task, scopolamine-induced acquisition impairment; format: in vivo, rat; conditions: ferulic acid at 50-100 mg/ml (printed), i.p. 1 hour before training trial, scopolamine 1 mg/kg i.p., FIG. 1
# Method: as §1
# [6] = test system: scopolamine (SCOP)-induced acquisition impairment of passive avoidance response in rats; experiment: Passive avoidance task, scopolamine-induced impairment with peripheral antagonist scopolamine methylbromide; format: in vivo, rat; conditions: FIG. 7
# Method: as §1
# [7] = administered intravenously; reported by Xu et al.; cited from earlier work
# [8] = test system: deficit of place learning in the Morris water maze task induced by scopolamine in rats; experiment: Morris water maze test, scopolamine-induced deficit of place learning; format: in vivo, rat; conditions: 50-100 mg/kg ferulic acid i.p., scopolamine 0.3 mg/kg i.p., FIG. 9
# Method: The water maze apparatus (Columbus Instruments Intl. Co., USA) was used in this Example. The swimming time and track of rats in the water maze were monitored by the Videomex V System and recorded by computer software. The water maze apparatus consisted of a water tank of 180 cm in diameter and 35 cm in height. The water stained as milk-white color was poured into the tank (25 cm in depth, 23±1° C.) before the training trial. The tank was conceptually divided into the 4 quadrants of east, west, south and north on the computer. An acrylic plate of 10 cm in diameter was placed at the north quadrant 1 cm below the water level. Rats were trained 4 times per day as one training course for 5 days. In one training course, each rat swam to the acrylic plate from 4 different quadrants, respectively. 10 seconds after swimming to the acrylic plate, the rat was returned to the home cage. After 30 seconds of rest, the next training session was carried out. The swimming time from the beginning to the acrylic plate was recorded, and an upper cut-off time of 60 seconds was set^(18). Ferulic acid (Sigma) was freshly dissolved in carboxy-methyl cellulose, and administered to rats (50, 100 mg/kg, i.p.) 1 hour before the training trial in combination with the following drug: scopolamine HBr (muscarinic receptor blocker; 0.3 mg/kg, i.p.) 30 minutes before the training trial for inducing acquisition impairment.
# [9] = test system: scopolamine plus mecamylamine-induced acquisition impairment of passive avoidance response in rats; experiment: Passive avoidance task, scopolamine plus mecamylamine-induced acquisition impairment; format: in vivo, rat; conditions: ferulic acid at 50-100 mg/ml (printed), scopolamine and mecamylamine co-administered under the threshold dosage, FIG. 6
# Method: as §1
# [10] = test system: pirenzepine-induced acquisition impairment of passive avoidance response in rats; experiment: Passive avoidance task, pirenzepine-induced acquisition impairment; format: in vivo, rat; conditions: ferulic acid at 50-100 mg/ml (printed), i.p., pirenzepine 1 mg/kg i.p., FIG. 3
# Method: as §1
structure (smiles),measurement,setting,value
"COc1cc(C=CC(=O)O)ccc1O [ferulic acid, 4-hydroxy-3-methoxycinnamic acid]","effect on mecamylamine-induced acquisition impairment (step-through latency, passive avoidance)",[1],attenuates
same,effect on cerebral blood flow rate,[2],enhances
same,"effect on CXM-induced consolidation impairment (step-through latency, passive avoidance)",[3],significantly ameliorates
same,effect on memory impairment induced by AF64A (passive avoidance),[4],counteracts
same,"effect on scopolamine-induced acquisition impairment (step-through latency, passive avoidance)",[5],attenuates
same,blocking of the counteracting effects of ferulic acid on scopolamine-induced learning impairment by peripheral cholinergic antagonist scopolamine methylbromide,[6]; ferulic acid 100 mg/kg with scopolamine methylbromide 0.5 mg/kg i.p.,does not block
same,effect on scopolamine-induced acquisition impairment (passive avoidance),"[6]; ferulic acid at 100 mg/kg, scopolamine 0.3 mg/kg i.p.",ameliorates
same,half lethal dose (LD50),[7],866 ± 29 mg/kg
same,effect on scopolamine-induced acquisition impairment in a water maze,[8],ameliorates
same,effect on learning impairment induced by scopolamine plus mecamylamine (passive avoidance),[9],attenuates
same,"effect on pirenzepine-induced acquisition impairment (step-through latency, passive avoidance)",[10],counteracts
